Results from patent publication EP2386565A2, “Compounds and methods to inhibit or augment an inflammatory response” (Cambridge Enterprise Ltd., priority 1999, dated 2000).
Non-standard residues stand in square brackets, D forms with d. Residues, ends and D or L forms follow the SMILES beside them. No end group written: not given here.

What was measured:
[1] = system: MCP-1 induced THP-1 migration; assay: THP-1 trans-well migration assay, MCP-1 as chemoattractant; type: cell-based, human
Experimental: (§1) To determine whether an agent inhibits a chemokine-induced activity, such as macrophage recruitment, varying amounts of the agent are mixed with cells in the presence of a known chemoattractant. For example, a range of known concentrations of an agent, e.g., a chemokine peptide, is incubated with a defined number (e.g., 10^4 - […]) of human THP-1 monocyte cells in individual wells of the top compartment of a trans-well plate. Chemokine (such as MCP-1, MIP1α, IL8 or SDF-1α), at a concentration known to cause significant migration of THP-1 cells in the trans-well migration assay, is placed in the lower compartment (Figure 1). Cells are then incubated at 37°C for a period sufficient to allow migration, e.g., 4 hours. After incubation, the cells are gently removed from the top of the filter with a pipette, 20 µl of 20 mM EDTA in simple PBS is added into each top well, and incubated for 20 minutes at 4°C. The filter is carefully flushed with media using a gentle flow, and removed. A standard curve consisting of a two-fold dilution series of THP-1 cells (in 29 µl) is prepared to accurately quantify the number of cells that have migrated. Migrated cells are stained with 3 µl of MTT stock dye solution which is added directly into each well (5 mg/ml in RPMI-1640 without phenol red, Sigma Chemical Co.) and incubated at 37°C for 4 hours. The media is carefully aspirated from each well, and the converted dye is solubilized by 20 µl of DMSO. Absorbance of converted dye is measured at a wavelength of 595 nm using an ELISA plate reader. The number of migrated cells in each well is then determined by interpolation of the standard curve (see also Imai et al.,J. Biol. Chem., 272, 15036 (1997)).
Any method suitable for counting cells can be used, for example, counting with a hemocytometer, incubation of the cells with MTT (see above), or FACS analysis. A negative control assay is also performed, using TGF-β or another non-chemokine chemoattractant (e.g., IL1β or TNFα). To assess whether the agent is cytotoxic, the same concentrations of agent are incubated with THP-1 cells. Agents which 1) are not cytotoxic at levels which inhibit migration, 2) are ineffective at inhibiting the negative control-induced migration, and 3) reduce or inhibit chemokine-induced THP-1 migration, are agents which fall within the scope of the invention.
For this assay, THP-1 cells were maintained at a density of 4 × 10^5 cells per ml in RPMI-1640 supplemented with 10% fetal calf serum + 20 µM 2-mercaptoethanol. Chemotaxis was induced in a 96-well disposable chemotaxis chamber fitted with a 5 µM polycarbonate filter (PVP free, ChemoTX, Neuroprobe Inc., Cabin John). […] The framed filter was aligned with the holes in the corner of the filter frame and placed over the wells.
(§2) Five × 10^4 THP-1 cells in 25 µl of RPMI-1640 were added to the upper compartment. Peptides were dissolved in Milli Q water and then serially diluted in culture medium. In most cases, the serially diluted peptides were added to the upper compartment of the chemotaxis chamber. The chamber was incubated at 37°C in a humidified atmosphere of 5% CO2 for 4 hours.
After incubation, the cells were gently removed from the top of the filter with a pipette, 20 µl of 20 mM EDTA in PBS was added into each top well, and the mixture was incubated for 20 minutes at 4°C. The filter was then carefully flushed with media using a gentle flow, and removed. A standard curve was prepared to accurately quantify the number of THP-1 cells that had migrated. The curve was based on a two-fold dilution series of THP-1 cells (top standard 100,000 cells in 29 µl). Cells which had migrated, and in separate wells, the cells in the standards, were stained with 3 µl of MTT stock solution which was added directly into each well (5 mg/ml in RPMI 1640 without phenol red, Sigma Chemical Co.) and incubated at 37°C for 4 hours. The media was carefully aspirated from each well, and the converted dye was solubilized by 20 µl of DMSO. […]

[2] = system: MIP1α induced THP-1 migration; assay: THP-1 trans-well migration assay, MIP1α as chemoattractant; type: cell-based, human; settings: inhibition of THP-1 migration; n.s./ns = not statistically significant
Experimental: as §1
(§3) For this assay, THP-1 cells were maintained at a density of 4 × 10^5 cells per ml in RPMI-1640 supplemented with 10% fetal calf serum + 20 µM 2-mercaptoethanol. Chemotaxis was induced in a 96-well disposable chemotaxis chamber fitted with a 5 µM polycarbonate filter (PVP free, ChemoTX, Neuroprobe Inc., Cabin John). Twenty-nine µl of chemoattractant (recombinant human chemokine; 50 ng/ml, i.e., 5.9 nM) or control (100 ng/ml TGFβ) was added to the lower compartment of each well. The framed filter was aligned with the holes in the corner of the filter frame and placed over the wells.
as §2
(§4) After incubation, the cells were gently removed from the top of the filter with a pipette, 20 µl of 20 mM EDTA in PBS was added into each top well, and the mixture was incubated for 20 minutes at 4°C. The filter was then carefully flushed with media using a gentle flow, and removed. A standard curve was prepared to accurately quantify the number of THP-1 cells that had migrated. The curve was based on a two-fold dilution series of THP-1 cells (top standard 100,000 cells in 29 µl). Cells which had migrated, and in separate wells, the cells in the standards, were stained with 3 µl of MTT stock solution which was added directly into each well (5 mg/ml in RPMI 1640 without phenol red, Sigma Chemical Co.) and incubated at 37°C for 4 hours. The media was carefully aspirated from each well, and the converted dye was solubilized by 20 µl of DMSO. Absorbance of converted dye was measured at a wavelength of 595 nm using an ELISA plate reader. The number of cells that had migrated in each well was determined by interpolation of the standard curve.
(§5) To investigate the receptor specificity of peptide 3 inhibition, the ED50 was determined for peptide 3(1-12)[MCP-1] (SEQ ID NO:1) inhibition of THP-1 migration induced by chemokines which signal through different receptors than MCP-1 receptors. […]

[3] = system: SDF-1α induced THP-1 migration; assay: THP-1 trans-well migration assay, SDF-1α as chemoattractant; type: cell-based, human; settings: inhibition of THP-1 migration; n.s./ns = not statistically significant
Experimental: as §1, §3, §2, §4, §5

gp120 = settings: ns = not significant; >100 = ED50 not determined
Experimental: Binding assays. Cells (either Jurkat T-cells or THP-1 cells) were grown in RPMI 1640 medium supplemented with 10% fetal calf serum, 2 mM glutamine, 20 µM β-mercaptoethanol, 100 U/ml penicillin and 100 µg/ml streptomycin and maintained between 2 × 10^5 and 1 × 10^6 cells/ml. Prior to performing a binding assay, cells were spun out (100 × g; 4 minutes) and washed 3 times in ice-cold PBS. A volume of cell suspension in PBS containing 10^6 cells (for Jurkat cells) or 4 × 10^5 cells (for THP-1 cells) was pipetted into each well of a V-bottom 96-well plate (Gibco BRL) and spun out (100 x g; 4 minutes). Triplicate wells were then resuspended in 100 µl binding medium (PBS pH 7.2 containing 0.1% fatty acid-free bovine serum albumin (BSA)) containing labeled peptide in the presence or absence of various concentrations of unlabeled peptide. The plate was then incubated on ice for 90 minutes. Cells were washed 3 times with 380 µl of ice-cold PBS, spinning out the cells each time (100 × g; 4 minutes), and resuspended in 100 µl binding medium containing streptavidin-peroxidase (Amersham International) at 1:1000 dilution. Cells were incubated for a further 15 minutes on ice to allow labeling of any bound biotinylated peptide, then washed 4 times as above. Cells were then incubated with 200 µl TMB substrate (K-Blue, Bionostics) for 20 minutes at room temperature, and the reaction stopped by addition of 50 µl 2 M HCl. The plate was spun (3,000 × g; 3 minutes) and 200 µl of the colored product was transferred to an empty 96-well ELISA plate and the absorbance at 450 nm determined. For each assay, the absorbance of a blank reaction (no peptide added) was subtracted from all readings before further analysis.
Binding experiments with labeled peptide 2 were performed with 10 nM labeled peptide in each reaction.

[4] = biological target: T1, Duffy Antigen Receptor for Chemokines (DARC) (Homo sapiens, UniProt Q16570); assay: DARC binding: competition with 125I-MCP-1 on red blood cells; settings: for DARC binding (µM): ns = not significantly different from control, >100 = not determined
T1 sequence (Q16570 1-336): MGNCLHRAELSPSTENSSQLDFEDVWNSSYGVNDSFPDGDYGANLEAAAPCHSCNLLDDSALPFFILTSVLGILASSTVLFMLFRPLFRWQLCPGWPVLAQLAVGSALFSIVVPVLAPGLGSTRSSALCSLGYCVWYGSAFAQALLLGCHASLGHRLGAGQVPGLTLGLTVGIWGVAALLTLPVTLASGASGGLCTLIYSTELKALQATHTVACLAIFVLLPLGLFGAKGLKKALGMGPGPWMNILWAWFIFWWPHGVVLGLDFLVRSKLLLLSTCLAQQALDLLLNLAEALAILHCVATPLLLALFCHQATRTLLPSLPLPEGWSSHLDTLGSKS

[5] = system: chemokine-induced THP-1 migration; assay: THP-1 trans-well migration assay, several chemokines together (averages, selectivity, pan-chemokine statements); type: cell-based, human; settings: average inhibitory ED50 for THP-1 migration induced by each of the chemokines
Experimental: To determine whether an agent inhibits a chemokine-induced activity, such as macrophage recruitment, varying amounts of the agent are mixed with cells in the presence of a known chemoattractant. […] Chemokine (such as MCP-1, MIP1α, IL8 or SDF-1α), at a concentration known to cause significant migration of THP-1 cells in the trans-well migration assay, is placed in the lower compartment (Figure 1). Cells are then incubated at 37°C for a period sufficient to allow migration, e.g., 4 hours. After incubation, the cells are gently removed from the top of the filter with a pipette, 20 µl of 20 mM EDTA in simple PBS is added into each top well, and incubated for 20 minutes at 4°C. The filter is carefully flushed with media using a gentle flow, and removed. […] The media is carefully aspirated from each well, and the converted dye is solubilized by 20 µl of DMSO.
Chemotaxis was induced in a 96-well disposable chemotaxis chamber fitted with a 5 µM polycarbonate filter (PVP free, ChemoTX, Neuroprobe Inc., Cabin John). […] The framed filter was aligned with the holes in the corner of the filter frame and placed over the wells.
Peptides were dissolved in Milli Q water and then serially diluted in culture medium. In most cases, the serially diluted peptides were added to the upper compartment of the chemotaxis chamber. The chamber was incubated at 37°C in a humidified atmosphere of 5% CO2 for 4 hours.
After incubation, the cells were gently removed from the top of the filter with a pipette, 20 µl of 20 mM EDTA in PBS was added into each top well, and the mixture was incubated for 20 minutes at 4°C. The filter was then carefully flushed with media using a gentle flow, and removed. […] The curve was based on a two-fold dilution series of THP-1 cells (top standard 100,000 cells in 29 µl). […] The media was carefully aspirated from each well, and the converted dye was solubilized by 20 µl of DMSO.
Representative chemokines included […] ("CC"), MIP-1α and RANTES, and two alpha-chemokines ("CXC"), IL-8 and SDF-1α. Additionally, to determine the specificity ofpeptide 3(1-12)[MCP-1]
The number of pluses is a qualitative indicating of the activity of each peptide in each assay.

CC[C@@H](C)[C@@H](NC(=O)[C@H](NC(=O)[C@@H](CO)NC(=O)[C@@H](CO)NC(=O)[C@@H](CCCCN)NC(=O)[C@@H](CS)NC(=O)[C@H]1CCCN1C(=O)[C@@H](CCCCN)NC(=O)[C@@H](CCC(=O)O)NC(=O)[C@@H](C)NC(=O)[C@H](N)C(C)C)[C@H](C)O)C(=O)N[C@H](CCCNC(=N)N)C(=O)N[C@H](CCCNC(=N)N)C(=O)N[C@H](Cc1ccc(O)cc1)C(=O)N[C@H](CO)C(=O)O [LRD peptide 2(1-15)[MCP-1], Vaekpcksstirrys] (H-[dV][dA][dE][dK][dP][dC][dK][dS][dS][dT][dI][dR][dR][dY][dS]-OH; N-terminus and C-terminus assumed)
ED50 (µM) versus MCP-1 ([1]; inhibition of THP-1 migration, n.s./ns = not statistically significant): ns | ED50 (µM) versus MIP1α [2]: ns | ED50 (µM) versus SDF-1α [3]: ns | gp120 ED-50 (gp120): 3 µM

CC(C)[C@@H](N)C(=O)NCC(=O)N1CCC[C@@H]1C(=O)N[C@H](CCCCN)C(=O)N[C@H](CO)C(=O)N[C@H](CS)C(=O)N[C@H](CCC(N)=O)C(=O)N[C@H](CO)C(=O)N[C@H](CO)C(=O)N[C@@H](C(=O)N[C@H](CCC(=O)O)C(=O)N[C@H](Cc1ccccc1)C(=O)N[C@H](Cc1ccc(O)cc1)C(=O)N[C@H](CC(=O)O)C(=O)O)[C@H](C)O [vgpkscqsstefyd] (H-[dV]G[dP][dK][dS][dC][dQ][dS][dS][dT][dE][dF][dY][dD]-OH)
DARC binding (µM) [4]: ns

CLDPKQKWIQC [unlabeled peptide, non-labeled version of the biotinylated peptide]
ED50 for inhibition of MCP-1 induced migration ([1]; MCP-1 at 100 ng/ml in RPMI 1640 + 10% FCS, 4 hours, 5 µm filter): about 9 µM

CQVWKQKPDAC [LRD-Cys13Leu4Ile11pep3[3-12]]
Average ED50 [5]: 1000 nM | Duffy selectivity / DARC specificity ratio ([4]; estimated ka for binding to red blood cells divided by average inhibitory ED50): 4.59

CSKPGV [CSKPGV]
DARC binding (µM) [4]: ns

DYFETSSQC
DARC binding (µM) [4]: ns

DYFETSSQCSKPGV [Pep2[MIP1α]]
DARC binding (µM) [4]: ns

SYRRI [SYRRI]
DARC binding (µM) [4]: ns

TSSKC [TSSKC]
DARC binding (µM) [4]: ns
